In patent US12459951B2, “Compounds that interact with RAS superfamily proteins for treatment of cancers, inflammatory diseases, rasopathies, and fibrotic disease” (SHY Therapeutics, LLC, priority 2022, dated 2025):

Key:
[1] = tested on: Smad2/Smad3 phosphorylation; test: Phospho-Smad2/3 Inhibition Assay (western blot), Panc-1; assay type: cell-based, human; conditions: at 10 μM, Panc-1 pancreatic cancer cell line; starred symbols = activation
Method in brief: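 Western blotting of lysates (15-50 μg protein) read phosphorylation of Smad2 Ser465/467 and Smad3 Ser423/425. Before lysis, Panc-1 cells got 1 h of 10 ng/ml TGF-b1 following 3 h compound exposure at 37° C (10 μM final, or serial dilutions for IC50, 0.3% DMSO) after overnight 0.5% FBS starvation.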

[2] = tested on: TNF-alpha; test: TNF-alpha Quantification Assay (ELISA), LPS-stimulated RAW 264.7; assay type: cell-based; conditions: Mus musculus, RAW264.7; at 10 μM; read-out: TNFα: % inh.
[3] = tested on: KRas G12D mutant; test: Ras GTP Binding Domain Inhibition Assay (Ras Superfamily Assay); conditions: 20 μM compound; for KRas G12D mutant + SOS: % inh.: with SOS; for KRas G12D mutant: % inh.: without SOS
Method in brief: (§1)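 Ni-plate capture of His-tagged protein (10-30 μg/mL, o/n 4° C); cpd 20 μM or dilution series, 1% DMSO, 3 h RT ± Sos 556-1049 last h; 100 nM Cy-labelled GTP 45 min RT; 3× wash; fluorescence read.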

[4] = tested on: KRas wild type; test: as above; conditions: 20 μM compound; for KRas wild type + SOS: % inh.: with SOS; for KRas wild type: % inh.: without SOS
Method in brief: as §1

[5] = biological target: T1, Rac-1 (Homo sapiens, UniProt P63000); test: as above; conditions: read-out: Rac-1: % inh.
T1 construct: made in house
Method in brief: as §1

SMILES	KRas G12D mutant + SOS: % inh. [3]	KRas G12D mutant: % inh. [3]	KRas wild type + SOS: % inh. [4]	KRas wild type: % inh. [4]	inhibition at 20 µM [5] [%]	% inh of Smad2/3 phosphorylation in Panc-1 [1]	inhibition at 10 µM [2] [%]
COc1cnc(Nc2nc(-c3nccn3C)nn3cc(-c4ccn(C)n4)c(C)c23)nc1.Cl [Compound 117, N-(5-Methoxypyrimidin-2-yl)-5-methyl-2-(1-methyl-1H-imidazol-2-yl)-6-(1-methyl-1H-pyrazol-3-yl)pyrrolo[2,1-f][1,2,4]triazin-4-amine hydrochloride salt]	A (A = 1-25% inhibition)	A (A = 1-25% inhibition)	A (A = 1-25% inhibition)	A (A = 1-25% inhibition)	1 to 25	A (A = 1-25% inhibition)	1 to 24
Cc1c(-c2ccn(C)n2)cn2nc(-c3nccn3C)nc(Nc3nccc(OCCN(C)C)n3)c12 [Compound 105, N-(4-(2-(Dimethylamino)ethoxy)pyrimidin-2-yl)-5-methyl-2-(1-methyl-1H-imidazol-2-yl)-6-(1-methyl-1H-pyrazol-3-yl)pyrrolo[2,1-f][1,2,4]triazin-4-amine]	D (D = 76-100% inhibition)	D (D = 76-100% inhibition)	D (D = 76-100% inhibition)	C (C = 50-75% inhibition)	76 to 100	A (A = 1-25% inhibition)	0
Cc1c(-c2ccn(C(C)C)n2)cn2nc(-c3nccn3C)nc(Nc3nccc(OCCN(C)C)n3)c12 [Compound 96, N-(4-(2-(Dimethylamino)ethoxy)pyrimidin-2-yl)-6-(1-isopropyl-1H-pyrazol-3-yl)-5-methyl-2-(1-methyl-1H-imidazol-2-yl)pyrrolo[2,1-f][1,2,4]triazin-4-amine]	D (D = 76-100% inhibition)	D (D = 76-100% inhibition)	D (D = 76-100% inhibition)	D (D = 76-100% inhibition)	76 to 100	D (D = 76-100% inhibition)	0
COc1cncnc1Nc1nc(-c2nccn2C)nn2cc(-c3ccn(C)n3)c(C)c12 [Compound 107, N-(5-Methoxypyrimidin-4-yl)-5-methyl-2-(1-methyl-1H-imidazol-2-yl)-6-(1-methyl-1H-pyrazol-3-yl)pyrrolo[2,1-f][1,2,4]triazin-4-amine]	C (C = 50-75% inhibition)	C (C = 50-75% inhibition)	D (D = 76-100% inhibition)	C (C = 50-75% inhibition)	76 to 100	A (A = 1-25% inhibition)	1 to 24
Cc1c(-c2ccn(C(C)C)n2)cn2nc(-c3nccn3C)nc(Nc3nccn3C)c12 [Compound 93, 6-(1-Isopropyl-1H-pyrazol-3-yl)-5-methyl-N,2-bis(1-methyl-1H-imidazol-2-yl)pyrrolo[2,1-f][1,2,4]triazin-4-amine]	D (D = 76-100% inhibition)	D (D = 76-100% inhibition)	D (D = 76-100% inhibition)	D (D = 76-100% inhibition)	76 to 100	A (A = 1-25% inhibition)	75 to 100

Now from value to compound, other results behind:

KRas G12D mutant + SOS: % inh. [3]	KRas G12D mutant: % inh. [3]	KRas wild type + SOS: % inh. [4]	KRas wild type: % inh. [4]	inhibition at 20 µM [5] [%]	SMILES	% inh of Smad2/3 phosphorylation in Panc-1 [1]	inhibition at 10 µM [2] [%]
D (D = 76-100% inhibition)	D (D = 76-100% inhibition)	D (D = 76-100% inhibition)	D (D = 76-100% inhibition)	76 to 100	COc1ccnc(Nc2nc(-c3nccn3C)nn3cc(-c4ccn(C)n4)c(C)c23)c1 [Compound 102, N-(4-Methoxypyridin-2-yl)-5-methyl-2-(1-methyl-1H-imidazol-2-yl)-6-(1-methyl-1H-pyrazol-3-yl)pyrrolo[2,1-f][1,2,4]triazin-4-amine]	A* (A* = 1-25% activation)	25 to 49
B (B = 26-49% inhibition)	B (B = 26-49% inhibition)	A (A = 1-25% inhibition)	C (C = 50-75% inhibition)	26 to 49	Cc1c(-c2ccn(C)n2)cn2nc(-c3nccn3C)nc(Nc3ccn(C4CC4)n3)c12 [Compound 111, N-(1-Cyclopropyl-1H-pyrazol-3-yl)-5-methyl-2-(1-methyl-1H-imidazol-2-yl)-6-(1-methyl-1H-pyrazol-3-yl)pyrrolo[2,1-f][1,2,4]triazin-4-amine]	D* (D* = 76-100% activation)	50 to 74
D (D = 76-100% inhibition)	D (D = 76-100% inhibition)	D (D = 76-100% inhibition)	D (D = 76-100% inhibition)	76 to 100	Cc1c(-c2ccn(C3CC3)n2)cn2nc(-c3nccn3C)nc(Nc3cc(OC(F)F)ccn3)c12 [Compound 139, 6-(1-Cyclopropyl-1H-pyrazol-3-yl)-N-(4-(difluoromethoxy)pyridin-2-yl)-5-methyl-2-(1-methyl-1H-imidazol-2-yl)pyrrolo[2,1-f][1,2,4]triazin-4-amine]	A* (A* = 1-25% activation)	1 to 24
A (A = 1-25% inhibition)	B (B = 26-49% inhibition)	C (C = 50-75% inhibition)	A (A = 1-25% inhibition)	26 to 49	Cc1c(-c2ccn(C)n2)cn2nc(-c3nccn3C)nc(Nc3cnccn3)c12 [Compound 120, 5-Methyl-2-(1-methyl-1H-imidazol-2-yl)-6-(1-methyl-1H-pyrazol-3-yl)-N-(pyrazin-2-yl)pyrrolo[2,1-f][1,2,4]triazin-4-amine]	A* (A* = 1-25% activation)	1 to 24
D (D = 76-100% inhibition)	D (D = 76-100% inhibition)	D (D = 76-100% inhibition)	D (D = 76-100% inhibition)	76 to 100	Cc1c(-c2ccn(C)n2)cn2nc(-c3nccn3C)nc(Nc3cc4n(n3)CCC4)c12 [Compound 100, N-(5,6-Dihydro-4H-pyrrolo[1,2-b]pyrazol-2-yl)-5-methyl-2-(1-methyl-1H-imidazol-2-yl)-6-(1-methyl-1H-pyrazol-3-yl)pyrrolo[2,1-f][1,2,4]triazin-4-amine]	C* (C* = 46-75% activation)	0
C (C = 50-75% inhibition)	C (C = 50-75% inhibition)	C (C = 50-75% inhibition)	D (D = 76-100% inhibition)	76 to 100	Cc1c(-c2ccn(C)n2)cn2nc(-c3nccn3C)nc(Nc3cc4n(n3)CCO4)c12 [Compound 124, N-(5-Methyl-2-(1-methyl-1H-imidazol-2-yl)-6-(1-methyl-1H-pyrazol-3-yl)pyrrolo[2,1-f][1,2,4]triazin-4-yl)-2,3-dihydropyrazolo[5,1-b]oxazol-6-amine]	A (A = 1-25% inhibition)	1 to 24
